The values below come from ChEMBL document CHEMBL1135959, “The discovery of SB-435495. A potent, orally active inhibitor of lipoprotein-associated phospholipase A(2) for evaluation in man” (Bioorg Med Chem Lett, 2002).

Data set [1] in a line: Permeability of compound was evaluated in an artificial membrane permeability assay. The format is ADME, cell membranes. Conditions: PAMPA; read-out: Permeability (converted). On the technique in general: PAMPA measures passive passage across an artificial lipid membrane.
Data set [2] in a line: Acid dissociation constant was determined for the compound. The format is ADME.
Data set [3] has as its target Cytochrome P450 3A4 (Homo sapiens, UniProt P08684). The data set is described as follows: Inhibition of cytochrome P450 3A4. The data set is classed as ADME.
The target of data set [4] is T1, Platelet-activating factor acetylhydrolase (Homo sapiens, UniProt Q13093).
T1 sequence (Q13093 whole entry): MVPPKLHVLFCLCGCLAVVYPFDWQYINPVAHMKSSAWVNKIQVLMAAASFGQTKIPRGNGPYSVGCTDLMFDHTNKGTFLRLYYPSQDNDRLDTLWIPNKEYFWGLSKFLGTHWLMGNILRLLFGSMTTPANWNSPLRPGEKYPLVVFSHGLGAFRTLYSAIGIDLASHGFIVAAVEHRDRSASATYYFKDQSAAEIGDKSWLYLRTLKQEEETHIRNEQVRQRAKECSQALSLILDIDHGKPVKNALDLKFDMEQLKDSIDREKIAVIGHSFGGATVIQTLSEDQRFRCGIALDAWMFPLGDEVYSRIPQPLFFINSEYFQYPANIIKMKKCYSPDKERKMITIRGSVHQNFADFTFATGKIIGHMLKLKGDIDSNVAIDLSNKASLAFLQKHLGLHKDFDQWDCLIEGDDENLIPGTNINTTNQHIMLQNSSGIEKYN
The data set is described as follows: Inhibitory concentration against Lipoprotein-Associated Phospholipase A2 (Lp-PLA2) was estimated.

A short description of data set [5]: Oral bioavailability in dog. The data set is classed as ADME, organism-based, Canis lupus familiaris. Conditions: in vivo, read-out: Bioavailabiility.
A short description of data set [6]: Solubility in pure water at pH 4.7. The data set is classed as physicochemical.
The target in data set [7] is T2, Cytochrome P450 1A2 (Homo sapiens, UniProt P05177).
T2 sequence (P05177 whole entry): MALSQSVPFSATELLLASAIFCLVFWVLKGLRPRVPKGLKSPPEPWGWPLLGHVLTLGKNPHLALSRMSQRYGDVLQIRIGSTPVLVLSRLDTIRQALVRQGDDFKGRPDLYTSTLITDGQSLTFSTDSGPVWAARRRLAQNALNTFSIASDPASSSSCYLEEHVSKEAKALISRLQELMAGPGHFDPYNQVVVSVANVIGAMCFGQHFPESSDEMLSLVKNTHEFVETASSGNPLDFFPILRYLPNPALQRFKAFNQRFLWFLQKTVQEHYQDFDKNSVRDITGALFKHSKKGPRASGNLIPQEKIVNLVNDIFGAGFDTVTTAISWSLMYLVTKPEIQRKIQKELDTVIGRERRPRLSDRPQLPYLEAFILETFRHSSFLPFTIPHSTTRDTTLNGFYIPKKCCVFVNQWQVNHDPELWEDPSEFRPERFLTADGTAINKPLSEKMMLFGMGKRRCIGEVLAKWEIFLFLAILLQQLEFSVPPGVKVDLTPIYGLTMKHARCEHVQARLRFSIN
The data set is described as follows: Inhibition of cytochrome P450 1A2. The format is ADME.

Data set [8] has as its target Cytochrome P450 2C19 (Homo sapiens, UniProt P33261). In words: Inhibition of cytochrome P450 2C19. The format is ADME.
Data set [9] concerns the target Cytochrome P450 2C9 (Homo sapiens, UniProt P11712). In words: Inhibition of cytochrome P450 2C9. The data set is classed as ADME.
The target in data set [10] is Cytochrome P450 2D6 (Homo sapiens, UniProt P10635). The data set is described as follows: Inhibition of cytochrome P450 2D6. The format is ADME.
Sequence of Cytochrome P450 2D6 (P10635 whole entry): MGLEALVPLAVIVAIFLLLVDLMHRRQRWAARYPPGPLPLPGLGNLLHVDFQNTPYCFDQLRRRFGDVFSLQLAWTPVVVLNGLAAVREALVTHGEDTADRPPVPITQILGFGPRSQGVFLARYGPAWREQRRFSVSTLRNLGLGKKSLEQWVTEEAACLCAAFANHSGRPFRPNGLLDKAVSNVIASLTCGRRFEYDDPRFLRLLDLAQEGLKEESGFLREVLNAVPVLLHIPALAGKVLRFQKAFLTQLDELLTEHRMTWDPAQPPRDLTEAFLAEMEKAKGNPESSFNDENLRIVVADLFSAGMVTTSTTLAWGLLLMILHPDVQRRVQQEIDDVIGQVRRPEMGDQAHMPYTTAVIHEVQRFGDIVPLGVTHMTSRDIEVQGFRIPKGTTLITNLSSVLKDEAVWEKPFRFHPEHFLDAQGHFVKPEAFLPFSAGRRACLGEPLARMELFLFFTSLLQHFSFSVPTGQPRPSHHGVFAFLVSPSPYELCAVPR
Data set [11] is filed under the species Homo sapiens. The data set is described as follows: Concentration required to inhibit the production of lyso-PtdCho by the compound during the copper catalyzed oxidation of human LDL. The format is functional.
The nature of data set [12]: Oral bioavailability in rat. The format is ADME, organism-based. Conditions: in vivo.
The species named for data set [13] is Homo sapiens. In words: Concentration required to inhibit the subsequent monocyte chemotaxis by the compound during the copper catalyzed oxidation of human LDL. The format is functional.

In brackets after ≈: the same amount, converted by molar mass.

Sequence of Cytochrome P450 3A4 (P08684 whole entry): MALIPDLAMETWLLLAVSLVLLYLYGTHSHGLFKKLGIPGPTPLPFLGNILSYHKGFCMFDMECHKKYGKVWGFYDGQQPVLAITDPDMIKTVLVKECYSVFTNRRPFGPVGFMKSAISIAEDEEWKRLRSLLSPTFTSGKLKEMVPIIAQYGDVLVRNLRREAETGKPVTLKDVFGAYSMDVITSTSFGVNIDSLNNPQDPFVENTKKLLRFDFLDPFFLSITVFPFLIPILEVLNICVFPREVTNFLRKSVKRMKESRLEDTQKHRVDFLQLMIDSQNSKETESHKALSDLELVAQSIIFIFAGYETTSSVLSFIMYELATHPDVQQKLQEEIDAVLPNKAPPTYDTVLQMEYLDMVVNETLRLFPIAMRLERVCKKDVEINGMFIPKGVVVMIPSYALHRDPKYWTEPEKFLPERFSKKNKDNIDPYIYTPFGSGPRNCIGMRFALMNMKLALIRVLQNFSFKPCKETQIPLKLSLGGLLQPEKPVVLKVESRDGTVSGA
Sequence of Cytochrome P450 2C19 (P33261 whole entry): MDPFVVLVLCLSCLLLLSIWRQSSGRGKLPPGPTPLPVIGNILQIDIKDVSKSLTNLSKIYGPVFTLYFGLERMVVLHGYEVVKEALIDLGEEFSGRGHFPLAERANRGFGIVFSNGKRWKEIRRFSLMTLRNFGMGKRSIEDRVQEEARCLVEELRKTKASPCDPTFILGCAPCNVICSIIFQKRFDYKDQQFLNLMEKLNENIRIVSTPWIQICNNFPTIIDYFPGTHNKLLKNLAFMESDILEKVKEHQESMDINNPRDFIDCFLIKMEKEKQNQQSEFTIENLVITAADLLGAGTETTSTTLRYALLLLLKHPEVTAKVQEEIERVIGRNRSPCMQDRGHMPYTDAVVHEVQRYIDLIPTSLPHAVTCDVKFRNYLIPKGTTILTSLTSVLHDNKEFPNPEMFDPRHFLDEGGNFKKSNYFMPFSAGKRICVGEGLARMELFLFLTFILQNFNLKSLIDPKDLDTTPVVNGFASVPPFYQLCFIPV
Sequence of Cytochrome P450 2C9 (P11712 whole entry): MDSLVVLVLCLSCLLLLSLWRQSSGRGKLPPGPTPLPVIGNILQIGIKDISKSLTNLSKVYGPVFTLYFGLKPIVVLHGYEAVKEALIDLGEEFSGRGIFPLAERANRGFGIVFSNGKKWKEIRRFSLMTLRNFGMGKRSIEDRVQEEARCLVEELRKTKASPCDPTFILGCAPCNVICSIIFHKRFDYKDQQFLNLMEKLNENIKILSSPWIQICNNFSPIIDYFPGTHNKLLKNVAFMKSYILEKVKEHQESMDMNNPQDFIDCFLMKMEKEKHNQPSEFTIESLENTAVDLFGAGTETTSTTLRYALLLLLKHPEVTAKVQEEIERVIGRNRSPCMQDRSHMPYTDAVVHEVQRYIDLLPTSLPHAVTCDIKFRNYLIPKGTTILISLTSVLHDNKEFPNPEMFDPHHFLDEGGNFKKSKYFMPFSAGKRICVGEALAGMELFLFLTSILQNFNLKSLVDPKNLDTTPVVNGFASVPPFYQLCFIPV

With `CCN(CC)CCN(Cc1ccc(-c2ccc(Cl)cc2)cc1)C(=O)Cn1cc(Cc2cnn(C)c2)c(=O)nc1SCc1ccc(F)cc1`, in data set [1], the Papp was 8.06 ×10⁻⁶ cm/s. For the same molecule, the pKa (as a rule, the negative logarithm of the acid dissociation constant) in data set [2] stood at 8.3. Also, the concentration for half-maximal inhibition (IC50) – broadly, the concentration at which inhibition is half-maximal – in data set [3] came to 5 µM.
As for `COc1ncc(Cc2cn(CC(=O)N(CC(=O)O)Cc3ccc(-c4ccc(Cl)cc4)cc3)c(SCc3ccc(F)cc3)nc2=O)cn1`, the IC50 in [4] was 0.001 µM.
Turning to `CCN(CC)CCCN(Cc1ccc(-c2ccc(Cl)cc2)cc1)C(=O)Cn1cc(Cc2cnn(C)c2)c(=O)nc1SCc1ccc(F)cc1`, in data set [1], the Papp was less than 0.278 ×10⁻⁶ cm/s. For the same molecule, in data set [2], the pKa worked out at 9. This molecule registered an IC50 in data set [3] of 2 µM.
For `CN(C)CCCN(Cc1ccc(-c2ccc(Cl)cc2)cc1)C(=O)Cn1cc(Cc2cnn(C)c2)c(=O)nc1SCc1ccc(F)cc1`, the Papp in data set [1] is 0.278 ×10⁻⁶ cm/s. Moreover, the half-inhibitory concentration (IC50) in [3] turned out to be 17 µM.
The corresponding values for `Cn1cc(Cc2cn(CC(=O)N(CC(=O)O)Cc3ccc(-c4ccc(C(F)(F)F)cc4)cc3)c(SCc3ccc(F)cc3)nc2=O)cn1` are less than 0.278 ×10⁻⁶ cm/s and 31 µM.
`Cn1cc(Cc2cn(CC(=O)N(CC(=O)N3CCOCC3)Cc3ccc(-c4ccc(C(F)(F)F)cc4)cc3)c(SCc3ccc(F)cc3)nc2=O)cn1`: the IC50 in data set [4] is 0.0001 µM.
Turning to `Cn1cc(Cc2cn(CC(=O)N(CCN)Cc3ccc(-c4ccc(Cl)cc4)cc3)c(SCc3ccc(F)cc3)nc2=O)cn1`, in data set [1], the Papp was 0.556 ×10⁻⁶ cm/s. Further, in data set [3], the half-inhibitory concentration (IC50) came out at 15 µM.
The corresponding values for `CN(C)CCN(Cc1ccc(-c2ccc(Cl)cc2)cc1)C(=O)Cn1cc(Cc2cnn(C)c2)c(=O)nc1SCc1ccc(F)cc1` are 0.556 ×10⁻⁶ cm/s and 8 µM.
As to `CN1CCN(CCCN(Cc2ccc(-c3ccc(Cl)cc3)cc2)C(=O)Cn2cc(Cc3cnn(C)c3)c(=O)nc2SCc2ccc(F)cc2)CC1`, in [1], the Papp is less than 0.278 ×10⁻⁶ cm/s. In data set [3], 10 µM corresponded to half-maximal inhibition (IC50).
`CCN(CC)CCN(Cc1ccc(-c2ccc(C(F)(F)F)cc2)cc1)C(=O)Cn1cc(Cc2cnn(C)c2)c(=O)nc1SCc1ccc(F)cc1`: the bioavailability worked out at 24% in data set [5] and 13% in data set [12]. In [6], the concentration in solution (solubility) was 5000 µg/mL (≈ 6.94 mM). Further, in data set [1], the Papp is 4.72 ×10⁻⁶ cm/s. In addition, the IC50 in [7] is 100 µM; in data set [8], greater than 40 µM; in data set [9], 100 µM; in data set [10], 37 µM; in data set [3] it was 10 µM; in data set [11], 0.023 µM. The molecule further showed an IC50 in data set [13] of 0.01 µM.
With `CN(C)CCN(Cc1ccc(-c2ccc(C(F)(F)F)cc2)cc1)C(=O)Cn1cc(Cc2cnn(C)c2)c(=O)nc1SCc1ccc(F)cc1`, the Papp in data set [1] is less than 0.278 ×10⁻⁶ cm/s. The same molecule had an IC50 in data set [3] of 30 µM.
With `COc1ncc(Cc2cn(CC(=O)N(CCN(C)C)Cc3ccc(-c4ccc(Cl)cc4)cc3)c(SCc3ccc(F)cc3)nc2=O)cn1`, the IC50 in [4] was 0.0002 µM.
As for `Cn1cc(Cc2cn(CC(=O)N(CCN3CCCC3)Cc3ccc(-c4ccc(Cl)cc4)cc3)c(SCc3ccc(F)cc3)nc2=O)cn1`, the Papp in data set [1] is 1.11 ×10⁻⁶ cm/s. In data set [3], the concentration for half-maximal inhibition (IC50) was 6 µM.
Take `Cn1cc(Cc2cn(CC(=O)N(CCN3CCCCC3)Cc3ccc(-c4ccc(C(F)(F)F)cc4)cc3)c(SCc3ccc(F)cc3)nc2=O)cn1`: the Papp in [1] is 18.9 ×10⁻⁶ cm/s. Moreover, the results for the 50% inhibitory concentration (IC50) in data set [3] and in data set [4] were 10 µM and 0.00017 µM, respectively.
Take `CN(C)C(=O)CN(Cc1ccc(-c2ccc(Cl)cc2)cc1)C(=O)Cn1cc(Cc2cnn(C)c2)c(=O)nc1SCc1ccc(F)cc1`: the IC50 in data set [3] was greater than 0.5 µM.
As to `COc1ncc(Cc2cn(CC(=O)N(CC(=O)N(C)C)Cc3ccc(-c4ccc(Cl)cc4)cc3)c(SCc3ccc(F)cc3)nc2=O)cn1`, the 50% inhibitory concentration (IC50) in data set [3] was less than 0.5 µM; in [4], 0.0002 µM.
Take `COc1ncc(Cc2cn(CC(=O)N(CCO)Cc3ccc(-c4ccc(Cl)cc4)cc3)c(SCc3ccc(F)cc3)nc2=O)cn1`: the 50% inhibitory concentration (IC50) in data set [4] was 0.0002 µM.
Consider `Cn1cc(Cc2cn(CC(=O)N(CCO)Cc3ccc(-c4ccc(Cl)cc4)cc3)c(SCc3ccc(F)cc3)nc2=O)cn1`, for which the Papp in [1] was 0.556 ×10⁻⁶ cm/s. Besides, the IC50 in data set [3] is 19 µM.
